Experimental data: patent publication US20240376480A1, “TREATMENT OF ELEVATED METABOLITE LEVELS USING NANOCARRIERS” (RAMOT AT TEL-AVIV UNIVERSITY LTD., priority 2021, published 2024)

B1: A58U riboswitch: pbuE adenine riboswitch with uracil substituted for adenine at position 58 (nucleic acid)
chain: GCGCGTTGTATAACCTCAATAATATGGTTTGAGGGTGTCTACCAGGAACCGTAAATTCCTGATTACAACGC
modifications: expressed or natural sequence

How the values were obtained:
[1] = tested on: aah1Δ apt1Δ yeast model; assay: Yeast growth assay (OD600) in excess-adenine yeast model; assay type: cell-based; conditions: low and high adenine concentrations (1 mg/L and 4 mg/L)
Description: Yeast growth assays: the strains used in this work were BY4741 (WT) and the adenine salvage mutant, aah1Δ apt1Δ, that was established by a disruption of both AAH1 and APT1. The strains were grown overnight at 30° C. in synthetic defined SD medium (6.7 g/L Yeast Nitrogen Base without Amino Acids (Difco) and 20 g/L glucose (Merck)) containing a specific mixture of amino acids and nucleobases (without adenine). For OD600 measurements, strains were diluted to OD600=0.01. 200 μL of cells were platted on 96 wells microplates (Greiner, F-BOTTOM) with increasing concentrations of adenine (1, 2 and 4 mg/L) and with 2.5% (V/V) of the VLP-riboswitch nano-carries and incubated at 30° C. for 25 h with continuous shaking. OD600 was measured using Tecan™ SPARK 10M plate reader.
The aah1Δ apt1Δ mutant yeast model was grown in media without adenine or in media with 1, 2, and 4 mg/L of adenine, respectively.

[2] = tested on: aah1Δ apt1Δ yeast model; conditions: TA added to the media; cited from earlier work
[3] = ligand adenine; cited from earlier work

Row | Molecule | growth of the model yeast [1] | amyloid-like structures of the adenine inside the yeast [2] | Kd [3] [nM]
1 | O=C(OC[C@H]1O[C@@H](OC(=O)c2cc(O)c(O)c(OC(=O)c3cc(O)c(O)c(O)c3)c2)[C@H](OC(=O)c2cc(O)c(O)c(OC(=O)c3cc(O)c(O)c(O)c3)c2)[C@@H](OC(=O)c2cc(O)c(O)c(OC(=O)c3cc(O)c(O)c(O)c3)c2)[C@@H]1OC(=O)c1cc(O)c(O)c(OC(=O)c2cc(O)c(O)c(O)c2)c1)c1cc(O)c(O)c(OC(=O)c2cc(O)c(O)c(O)c2)c1 [TA, tannic acid] | showed an improved growth | significant decrease | 
2 | B1 |  |  | 273 ± 17
